# According to patent publication US20260258084A1, “New Peptides as Selective IL-23 Receptor Antagonists” (Sanofi, priority 2022, published 2026):
# Starred links: 1 amine or outer side, 2 acyl side, 3 side chain; linkers in the order of their positions; H or OH if unused. Positions of bridges follow the written chain, without caps; N, C: chain ends. Non-standard residues stand in square brackets, D forms with d. Residues, ends and D or L forms follow the SMILES beside them. *: point of attachment. X6 = O=C(CCC(=O)[*:3])N[C@@H](CS[*:2])C(=O)[*:1]; Trp(7-Me) = Cc1cccc2c(C[C@H](N)C(=O)O)c[nH]c12; X1 = O=C(CCCCN[*:3])N[C@@H](CS[*:2])C(=O)[*:1]; αMeLys(Me2) = CN(C)CCCC[C@](C)(N)C(=O)O; 2Nal = N[C@@H](Cc1ccc2ccccc2c1)C(=O)O; Palmitoyl = CCCCCCCCCCCCCCCC(=O)*; 3Pal = N[C@@H](Cc1cccnc1)C(=O)O; αMeL = CC(C)C[C@](C)(N)C(=O)O; Suc = O=C(CCC(=O)[*:2])[*:1]; αMeK = C[C@](N)(CCCCN)C(=O)O; Thp = NC1(C(=O)O)CCOCC1; Me2NCH2CH2 = CN(C)CC*; Aib = CC(C)(N)C(=O)O; Ava = NCCCCC(=O)O; Sar = CNCC(=O)O
# Columns and labels:
# [1] = test system: IL-23 induced STAT3 signaling in HEK-Blue™ IL-23 cells; assay: IL-23 induced STAT3 signaling in HEK-Blue IL-23 cells (SEAP reporter); assay type: cell-based; details: human IL23 0.25 ng/ml, read-out: pSTAT3
# Method in brief: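 HEK-Blue IL-23 cells (10,000/well) pre-incubated 60 min at 37 °C with serially diluted peptides, then stimulated overnight with human IL-23 (0.25 ng/ml final). STAT3-driven SEAP in supernatant detected with QUANTI-Blue after 45 min at RT (OD 620-655 nm); dose-response curves fitted.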
# [2] = test system: Pancreatin; assay: Protease stability in simulated intestinal fluid (Pancreatin-SIF, FaSSIF); assay type: in vitro ADME; details: 1 μM peptide, 37° C.; for remaining at 1 h, 1 µM: 60 min, read-out: FaSSIF 60 (min), remaining percent of peptide; for remaining at 2 h, 1 µM: 120 min, read-out: FaSSIF 120 (min), remaining percent of peptide; for remaining at 4 h, 1 µM: 240 min, read-out: FaSSIF 240 (min), remaining percent of peptide
# Method in brief: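 Peptide (1 μM final) was incubated at 37° C in simulated intestinal fluid containing pancreatin (1 mg per 10 mL SIF concentrate). Samples were quenched with ethanol/0.1% HCOOH at 0, 60, 120 and 240 min and analysed by LC-MS/MS. Percent remaining is the peak area relative to time 0 (100%).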
# [3] = test system: T1, Pepsin; assay: Protease stability in simulated gastric fluid (Pepsin-SGF, FaSSGF); assay type: in vitro ADME; details: simulated gastric fluid with pepsin (Pepsin-SGF), 60 min, 1 μM peptide, 37° C., read-out: FaSSGF 60 (min), remaining percent of peptide
# T1 construct: purchased Merck Millipore
# Method in brief: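 Peptides at 1 μM final in pepsin-containing SGF at 37° C, sampled at 0, 60, 120 and 240 min, quenched with ethanol (0.1% HCOOH). Analysed by LCMS/MS; percent remaining from peak area relative to time 0 (set to 100%).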
# [4] = target: T2, human interleukin-23 receptor (recombinant human IL-23R-Fc chimera) (Homo sapiens, UniProt Q5VWK5); assay: Human ELISA IL23/IL23R (assay for specific human IL23R antagonists); assay type: binding; details: Table 10; read-out: Human ELISA IL23/IL23R IC50
# T2 construct: Fc (IgG Fc fusion)
# Method in brief: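 Plates coated overnight at 4 °C with human IL23 ([…]), blocked, then serially diluted peptides added with recombinant human IL-23R-Fc (0.1 μg/ml final) for 60 min at room temperature. Bound receptor detected with anti-human IgG1-HRP and fluorogenic peroxidase substrate.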
Structure (SMILES),"remaining at 1 h, 1 µM [2]","remaining at 2 h, 1 µM [2]","remaining at 4 h, 1 µM [2]","remaining at 1 h, 1 µM [3]",IC50 [4],IC50 [1]
CCCCCCCCCCCCCCCC(=O)NCCCC[C@]1(C)NC(=O)[C@H](Cc2ccc3ccccc3c2)NC(=O)[C@H](Cc2ccc(OCCN(C)C)cc2)NC(=O)[C@@H]2CSSC[C@H](NC(=O)CCCCNC(=O)CC[C@@H](C(=O)N[C@@H](CC(N)=O)C(=O)N[C@@H](Cc3cccnc3)C(=O)N(C)CC(N)=O)NC1=O)C(=O)NCCCC[C@H](NC(C)=O)C(=O)N[C@@H](Cc1c[nH]c3c(C)cccc13)C(=O)N[C@@H](CCCCNC(C)=O)C(=O)N2 [compound 67] (Ac-K[Trp(7-Me)]K(Ac)CY(Me2NCH2CH2)[2Nal][αMeK](Palmitoyl)EN[3Pal][Sar]-NH2; linker 1-4-8 via X1),99%,98%,98%,102%,2.27 nM,22.6 nM
Cc1cccc2c(C[C@@H]3NC(=O)[C@H]([C@@H](C)O)NC(=O)[C@H](CC(N)=O)NC(=O)[C@@H]4CSSC[C@H](NC(=O)[C@H](CCC(N)=O)NC3=O)C(=O)N[C@@H](Cc3ccc(OCCN(C)C)cc3)C(=O)N[C@@H](Cc3ccc5ccccc5c3)C(=O)NC(C)(C)C(=O)N[C@H](C(=O)N[C@@H](CC(N)=O)C(=O)N[C@@H](Cc3c[nH]cn3)C(N)=O)CCC(=O)NCCCCC(=O)N4)c[nH]c12 [compound 52] ([Ava]CNT[Trp(7-Me)]QCY(Me2NCH2CH2)[2Nal][Aib]ENH-NH2; disulfide 2-7; lactam N-11),81%,76%,65%,102%,0.5 nM,1.25 nM
CC(=O)NCCCC[C@@H]1NC(=O)[C@H](Cc2c[nH]c3ccccc23)NC(=O)[C@H]([C@@H](C)O)NC(=O)[C@H](CC(N)=O)NC(=O)[C@@H]2CSSC[C@H](NC1=O)C(=O)N[C@@H](Cc1ccc(OCCN(C)C)cc1)C(=O)N[C@@H](Cc1ccc3ccccc3c1)C(=O)N[C@@](C)(CCCCN(C)C)C(=O)N[C@H](C(=O)N[C@@H](CC(N)=O)C(=O)N[C@@H](Cc1cccnc1)C(=O)N(C)CC(N)=O)CCC(=O)NCCCCC(=O)N2 [compound 58] ([Ava]CNTWK(Ac)CY(Me2NCH2CH2)[2Nal][αMeLys(Me2)]EN[3Pal][Sar]-NH2; disulfide 2-7; lactam N-11),100%,98%,80%,93%,0.16 nM,0.1 nM
CC(=O)NCCCC[C@@H]1NC(=O)[C@H](Cc2c[nH]c3c(C)cccc23)NC(=O)[C@H]([C@@H](C)O)NC(=O)[C@H](CC(N)=O)NC(=O)[C@@H]2CSSC[C@H](NC1=O)C(=O)N[C@@H](Cc1ccc(OCCN(C)C)cc1)C(=O)N[C@@H](Cc1ccc3ccccc3c1)C(=O)N[C@@](C)(CCCCN(C)C)C(=O)N[C@H](C(=O)N[C@@H](CC(N)=O)C(=O)N[C@H](CC(C)C)C(N)=O)CCC(=O)NCCCCC(=O)N2 [compound 54] ([Ava]CNT[Trp(7-Me)]K(Ac)CY(Me2NCH2CH2)[2Nal][αMeLys(Me2)]EN[dL]-NH2; disulfide 2-7; lactam N-11),100%,100%,90%,91%,0.51 nM,2.59 nM
CC[C@H](C)[C@H](NC(=O)[C@H](CC(N)=O)NC(=O)[C@H](CC(N)=O)NC(=O)[C@@H]1CCC(=O)NCCCCC(=O)N[C@H]2CSSC[C@H](NC(=O)[C@H](CCCCNC(C)=O)NC(=O)[C@H](Cc3c[nH]c4ccccc34)NC(=O)[C@H]([C@@H](C)O)NC(=O)[C@H](CC(N)=O)NC2=O)C(=O)N[C@@H](Cc2ccc(OCCN(C)C)cc2)C(=O)N[C@@H](Cc2ccc3ccccc3c2)C(=O)NC(C)(C)C(=O)N1)C(N)=O [compound 38] ([Ava]CNTWK(Ac)CY(Me2NCH2CH2)[2Nal][Aib]ENNI-NH2; disulfide 2-7; lactam N-11),100%,96%,84%,86%,0.36 nM,11.9 nM

# Second part, led by results:
"remaining at 1 h, 1 µM [2]","remaining at 2 h, 1 µM [2]","remaining at 4 h, 1 µM [2]","remaining at 1 h, 1 µM [3]",IC50 [4],Structure (SMILES),IC50 [1]
78%,80%,77%,93%,0.55 nM,CC(=O)NCCCC[C@@H]1NC(=O)[C@H](Cc2c[nH]c3c(C)cccc23)NC(=O)[C@@H](NC(C)=O)CCCCNC(=O)[C@@H]2CSSC[C@H](NC1=O)C(=O)N[C@@H](Cc1ccc(OCCN(C)C)cc1)C(=O)N[C@@H](Cc1ccc3ccccc3c1)C(=O)NC1(CCOCC1)C(=O)N[C@H](C(=O)N[C@@H](CC(N)=O)C(=O)N[C@@H](Cc1cccnc1)C(=O)N(C)CC(N)=O)CCCCNC(=O)CCC(=O)N2 [compound 105] (Ac-K[Trp(7-Me)]K(Ac)CY(Me2NCH2CH2)[2Nal][Thp]KN[3Pal][Sar]-NH2; linker 1-4-8 via X6),0.1 nM
75%,73%,67%,89%,0.56 nM,CC(=O)NCCCC[C@@H]1NC(=O)[C@H](Cc2c[nH]c3c(C)cccc23)NC(=O)[C@H]([C@@H](C)O)NC(=O)[C@H](CC(N)=O)NC(=O)[C@@H]2CSSC[C@H](NC1=O)C(=O)N[C@@H](Cc1ccc(OCCN(C)C)cc1)C(=O)N[C@@H](Cc1ccc3ccccc3c1)C(=O)N[C@@](C)(CC(C)C)C(=O)N[C@H](C(=O)N[C@@H](CC(N)=O)C(=O)N[C@@H](Cc1cccnc1)C(=O)N(C)CC(N)=O)CCCCNC(=O)CCC(=O)N2 [compound 103] (CNT[Trp(7-Me)]K(Ac)CY(Me2NCH2CH2)[2Nal][αMeL]KN[3Pal][Sar]-NH2; disulfide 1-6; linker N-10 via Suc),0.11 nM
97%,97%,96%,101%,0.61 nM,CC(=O)NCCCC[C@@H]1NC(=O)[C@H](Cc2c[nH]c3c(C)cccc23)NC(=O)[C@H]([C@@H](C)O)NC(=O)[C@H](CC(N)=O)NC(=O)[C@@H]2CSSC[C@H](NC1=O)C(=O)N[C@@H](Cc1ccc(OCCN(C)C)cc1)C(=O)N[C@@H](Cc1ccc3ccccc3c1)C(=O)N[C@@](C)(CCCCN(C)C)C(=O)N[C@H](C(=O)N[C@@H](CC(N)=O)C(=O)N[C@@H](Cc1cccnc1)C(=O)N(C)CC(N)=O)CCCCNC(=O)CCC(=O)N2 [compound 151] (CNT[Trp(7-Me)]K(Ac)CY(Me2NCH2CH2)[2Nal][αMeLys(Me2)]KN[3Pal][Sar]-NH2; disulfide 1-6; linker N-10 via Suc),0.06 nM
91%,90%,83%,92%,0.59 nM,CC(=O)NCCCC[C@@H]1NC(=O)[C@H](Cc2c[nH]c3c(C)cccc23)NC(=O)[C@@H](NC(C)=O)CCCCNC(=O)[C@@H]2CSSC[C@H](NC1=O)C(=O)N[C@@H](Cc1ccc(OCCN(C)C)cc1)C(=O)N[C@@H](Cc1ccc3ccccc3c1)C(=O)NC(C)(C)C(=O)N[C@H](C(=O)N[C@@H](CC(N)=O)C(=O)N[C@@H](Cc1cccnc1)C(=O)N(C)CC(N)=O)CCC(=O)NCCCCC(=O)N2 [compound 72] (Ac-K[Trp(7-Me)]K(Ac)CY(Me2NCH2CH2)[2Nal][Aib]EN[3Pal][Sar]-NH2; linker 1-4-8 via X1),0.12 nM
99%,97%,96%,96%,0.52 nM,Cc1cccc2c(C[C@@H]3NC(=O)[C@H]([C@@H](C)O)NC(=O)[C@H](CC(N)=O)NC(=O)[C@@H]4CSSC[C@H](NC(=O)[C@H](CC(C)C)NC3=O)C(=O)N[C@@H](Cc3ccc(OCCN(C)C)cc3)C(=O)N[C@@H](Cc3ccc5ccccc5c3)C(=O)N[C@@](C)(CCCCN(C)C)C(=O)N[C@H](C(=O)N[C@@H](CC(N)=O)C(=O)N[C@@H](Cc3cccnc3)C(=O)N(C)CC(N)=O)CCCCNC(=O)CCC(=O)N4)c[nH]c12 [compound 154] (CNT[Trp(7-Me)]LCY(Me2NCH2CH2)[2Nal][αMeLys(Me2)]KN[3Pal][Sar]-NH2; disulfide 1-6; linker N-10 via Suc),0.08 nM
